According to patent US12370157B2, “Method for the treatment of COVID-19 infections with palmitoylethanolamide” (Epitech Group S.p.A., priority 2021, dated 2025):

Assay: Plasma levels of the two forms of PEA
Conditions: in vivo

CCCCCCCCCCCCCCCC(=O)NCCO [PEA-um, palmitoylethanolamide]
Plasma levels, PEA-um compared with PEA-m: substantially the same
